# Data as given in patent US12544382B2, “2, 4, 6-tri-substituted pyrimidine compound as ATR kinase inhibitor” (BEIJING TIDE PHARMACEUTICAL CO., LTD., priority 2019, dated 2026).
# Tests used:
# ATR kinase = ATR kinase (Homo sapiens (Human), UniProt Q13535); test: ATR kinase activity assay (time-resolved fluorescence, p53 substrate phosphorylation); type: biochemical
# Description: Biotinylated protein derived from p53 (Eurofins, art. No.: 14-952) was phosphorylated with ATR kinase. The amount of phosphorylated protein was determined by time-resolved fluorescence in this assay. The amount of phosphorylated protein was detected by anti-p53-phospho-(serine 15)-K-specific antibody (Cisbio, art. No.: 61GSTDLA) and d2 labeled anti-GST antibody (Cisbio, art. No. 61P08KAE). Before the experiment, the following working solution was prepared as required: 1× reaction buffer (20 mM HEPES PH8.0, 1% glycerol, 0.01% Brij-35), dilution buffer (20 mM HEPES PH8.0, 1% glycerol, 0.01% Brij-35, 5 mM DTT and 1% BSA), stop solution (20 mM HEPES PH8.0, 1% glycerol, 0.01% Brij-35, 250 mM EDTA), detection buffer (50 mM HEPES pH7.0, 150 mM NaCl, 267 mM KF, 0.1% sodium cholate, 0.01% Tween-20, 0.0125% sodium azide). The reagents used above are purchased from Sigma or Invitrogen, except for those where the manufacturer was mentioned.
# Operations are as follows:
# 4× gradient dilution of compound solutions was prepared with 1× reaction buffer to obtain 9 compound solutions of different concentrations, and 2.5 μL 4× gradient dilution of compound solutions was added to a 384-well analysis plate (784075, Greiner). 4× p53 substrate working solution (40 nM) was prepared with 1× reaction buffer, and 2.5 μL 4× p53 substrate working solution was added to the 384-well analysis plate. 4×ATR/ATRIP working solution (12.8 ng/μL) was prepared with dilution buffer, and 2.5 μL 4×pATR/ATRIP working solution was added to the 384-well analysis plate. 4×ATP working solution (2 mM) was prepared with deionized water, 2.5 μL 4×ATP working solution was added to the 384-well analysis plate, and incubated at room temperature in dark for 30 minutes. 5 μL stop solution was added to the 384 analysis plate. Finally, 5 μL test mixture (0.084 ng/μL Anti-phospho-p53(ser15)-K and 5 ng/μL Anti-GST-d2) was added to the 384 well analysis plate, incubated overnight at room temperature, and the fluorescence signal was detected with ENVISION (Perkinelmer) instrument (excitation wavelength: 320 nm, emission wavelength: 665 nm and 615 nm). The inhibition rate in each well was calculated by the fluorescence intensity value of each hole: ER (Emission Ratio)=(Fluorescence intensity at 665 nm/Fluorescence intensity at 615 nm); inhibition rate=(ER positive-ER test compound)/(ER positive-ER negative)×100%, the IC50 value of compounds were calculated by standard parameter fitting software (GraphPad Prism 6.0).
# [1] = tested on: TOV21G (ovarian cancer) cells; test: In vitro cell proliferation inhibition assay (CellTiter-Glo), TOV21G; type: cell-based, human; conditions: 120 hours
# Description: (§1) By detecting the effect of compound on cell activity in vitro in the tumor cell lines TOV21G (ovarian cancer) and MV4-11 (leukemia), the effect of compound inhibiting cell proliferation was studied in this assay.
# (§2) TOV21G cells and MV4-11 cells were purchased from American Type Culture Collection (ATCC).
# TOV21G cells were cultured in MCDB105/M199 medium (containing 15% […]), and used for testing when the cell confluence reaches 85% or more. Each well of a 96-well culture plate was inoculated with about 1000 cells, cultured for 24 hours, and treated with different concentrations (0-10 μM) of compound solution to be tested in triplex. Blank wells (contains medium only) and control wells (seeded cells was not treated with drug) were set. Cells were cultured for 120 hours, 40 μL Cell Titer-Glo solution (Promega, #G7573) were added to each well, incubated with shaking for 20 min in the dark, 100 μL solution was transferred from each well to a 96-well white plate (Corning, #3917), and the luminescence value was read by Biotek Synergy H1 multifunctional microplate reader.
# MV4-11 (leukemia) cells = test: In vitro cell proliferation inhibition assay (CellTiter-Glo), MV4-11; type: cell-based, human; conditions: MV4-11 cells
# Description: as §1, §2
# MV-4-11 cells were cultured in IMDM medium (containing 20% FBS), each well of a 96-well culture plate was inoculated with about 10000 cells, and treated with different concentrations (0-10 μM) of compounds to be tested in triplex. Blank wells (containing medium only) and control wells (inoculated with cells but not treated with drug) were set. Cells were cultured for 120 hours, 40 μL Cell Titer-Glo solution was added to each well, incubated with shaking for 20 min in the dark, 100 μL solution was transferred from each well to a 96-well white plate, and the luminescence value was read by Biotek Synergy H1 multifunctional microplate reader. Inhibition rate (%)=100%×(control well−test well)/(control well−blank well)
# Chain of ATR kinase (Q13535 whole entry): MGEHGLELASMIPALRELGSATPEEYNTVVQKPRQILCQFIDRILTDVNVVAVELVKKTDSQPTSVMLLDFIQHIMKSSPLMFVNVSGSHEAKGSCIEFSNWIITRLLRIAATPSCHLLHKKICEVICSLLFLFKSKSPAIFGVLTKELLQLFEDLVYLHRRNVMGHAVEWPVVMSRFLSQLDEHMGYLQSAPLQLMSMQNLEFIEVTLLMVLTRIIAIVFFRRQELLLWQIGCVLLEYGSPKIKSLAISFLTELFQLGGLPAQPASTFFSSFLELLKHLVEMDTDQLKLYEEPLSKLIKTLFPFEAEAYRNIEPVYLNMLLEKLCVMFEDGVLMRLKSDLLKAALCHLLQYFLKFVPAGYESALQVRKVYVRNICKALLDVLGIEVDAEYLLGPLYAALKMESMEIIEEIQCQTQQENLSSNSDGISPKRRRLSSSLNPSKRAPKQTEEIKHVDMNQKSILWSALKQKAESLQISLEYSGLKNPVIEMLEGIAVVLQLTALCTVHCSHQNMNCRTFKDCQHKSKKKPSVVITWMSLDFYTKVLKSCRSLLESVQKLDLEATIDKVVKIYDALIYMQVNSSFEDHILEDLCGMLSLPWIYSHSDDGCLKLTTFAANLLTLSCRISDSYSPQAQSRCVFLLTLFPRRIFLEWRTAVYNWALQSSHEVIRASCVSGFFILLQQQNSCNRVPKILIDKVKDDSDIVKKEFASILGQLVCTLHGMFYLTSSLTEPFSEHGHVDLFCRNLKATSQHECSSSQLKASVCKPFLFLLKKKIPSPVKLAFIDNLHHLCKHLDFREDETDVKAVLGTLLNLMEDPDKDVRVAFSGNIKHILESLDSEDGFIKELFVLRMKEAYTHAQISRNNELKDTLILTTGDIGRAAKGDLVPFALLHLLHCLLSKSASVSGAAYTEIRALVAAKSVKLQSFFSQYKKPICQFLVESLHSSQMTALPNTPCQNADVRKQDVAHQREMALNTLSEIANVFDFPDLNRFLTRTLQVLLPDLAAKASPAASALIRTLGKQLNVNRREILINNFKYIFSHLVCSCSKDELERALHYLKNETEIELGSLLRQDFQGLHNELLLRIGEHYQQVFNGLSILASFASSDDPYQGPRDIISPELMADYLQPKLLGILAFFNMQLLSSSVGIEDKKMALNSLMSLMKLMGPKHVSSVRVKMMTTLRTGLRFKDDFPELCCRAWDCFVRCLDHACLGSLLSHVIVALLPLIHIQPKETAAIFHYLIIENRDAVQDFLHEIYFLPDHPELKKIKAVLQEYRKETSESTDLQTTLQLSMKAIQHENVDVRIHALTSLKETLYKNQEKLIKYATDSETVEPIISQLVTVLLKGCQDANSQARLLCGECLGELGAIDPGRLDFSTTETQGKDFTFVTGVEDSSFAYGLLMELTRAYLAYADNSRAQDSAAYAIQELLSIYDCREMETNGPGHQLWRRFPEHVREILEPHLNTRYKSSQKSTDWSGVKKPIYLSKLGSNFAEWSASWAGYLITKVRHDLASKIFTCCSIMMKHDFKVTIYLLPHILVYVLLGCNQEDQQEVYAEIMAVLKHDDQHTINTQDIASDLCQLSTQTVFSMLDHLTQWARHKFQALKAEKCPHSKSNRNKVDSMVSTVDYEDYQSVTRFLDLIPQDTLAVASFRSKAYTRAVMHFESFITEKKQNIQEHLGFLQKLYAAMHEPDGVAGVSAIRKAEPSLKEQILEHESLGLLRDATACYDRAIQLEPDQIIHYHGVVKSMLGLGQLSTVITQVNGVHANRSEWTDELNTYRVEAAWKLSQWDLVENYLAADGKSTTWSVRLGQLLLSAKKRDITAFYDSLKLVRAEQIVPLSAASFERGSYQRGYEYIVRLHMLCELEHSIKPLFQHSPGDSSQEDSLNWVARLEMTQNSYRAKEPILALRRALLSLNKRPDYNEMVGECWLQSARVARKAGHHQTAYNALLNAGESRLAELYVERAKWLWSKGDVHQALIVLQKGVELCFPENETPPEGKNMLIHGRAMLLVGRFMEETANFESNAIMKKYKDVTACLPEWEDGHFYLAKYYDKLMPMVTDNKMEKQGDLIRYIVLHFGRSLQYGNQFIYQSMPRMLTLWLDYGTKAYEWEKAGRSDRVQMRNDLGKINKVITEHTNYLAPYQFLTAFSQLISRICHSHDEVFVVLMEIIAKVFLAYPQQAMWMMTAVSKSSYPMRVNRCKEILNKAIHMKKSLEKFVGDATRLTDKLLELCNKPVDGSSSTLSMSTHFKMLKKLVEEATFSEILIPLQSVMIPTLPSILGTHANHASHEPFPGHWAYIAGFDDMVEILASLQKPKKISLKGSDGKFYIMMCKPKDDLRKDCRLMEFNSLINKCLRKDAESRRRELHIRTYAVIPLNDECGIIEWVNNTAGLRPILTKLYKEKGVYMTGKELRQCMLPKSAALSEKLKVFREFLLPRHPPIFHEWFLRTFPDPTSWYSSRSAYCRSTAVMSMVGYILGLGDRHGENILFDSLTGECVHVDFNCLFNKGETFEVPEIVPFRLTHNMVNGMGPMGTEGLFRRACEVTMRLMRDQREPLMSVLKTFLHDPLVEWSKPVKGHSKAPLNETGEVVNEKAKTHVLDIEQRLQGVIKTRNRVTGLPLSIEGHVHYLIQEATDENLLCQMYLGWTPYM
# Chain of ATR kinase (Q8WXE1 whole entry partner): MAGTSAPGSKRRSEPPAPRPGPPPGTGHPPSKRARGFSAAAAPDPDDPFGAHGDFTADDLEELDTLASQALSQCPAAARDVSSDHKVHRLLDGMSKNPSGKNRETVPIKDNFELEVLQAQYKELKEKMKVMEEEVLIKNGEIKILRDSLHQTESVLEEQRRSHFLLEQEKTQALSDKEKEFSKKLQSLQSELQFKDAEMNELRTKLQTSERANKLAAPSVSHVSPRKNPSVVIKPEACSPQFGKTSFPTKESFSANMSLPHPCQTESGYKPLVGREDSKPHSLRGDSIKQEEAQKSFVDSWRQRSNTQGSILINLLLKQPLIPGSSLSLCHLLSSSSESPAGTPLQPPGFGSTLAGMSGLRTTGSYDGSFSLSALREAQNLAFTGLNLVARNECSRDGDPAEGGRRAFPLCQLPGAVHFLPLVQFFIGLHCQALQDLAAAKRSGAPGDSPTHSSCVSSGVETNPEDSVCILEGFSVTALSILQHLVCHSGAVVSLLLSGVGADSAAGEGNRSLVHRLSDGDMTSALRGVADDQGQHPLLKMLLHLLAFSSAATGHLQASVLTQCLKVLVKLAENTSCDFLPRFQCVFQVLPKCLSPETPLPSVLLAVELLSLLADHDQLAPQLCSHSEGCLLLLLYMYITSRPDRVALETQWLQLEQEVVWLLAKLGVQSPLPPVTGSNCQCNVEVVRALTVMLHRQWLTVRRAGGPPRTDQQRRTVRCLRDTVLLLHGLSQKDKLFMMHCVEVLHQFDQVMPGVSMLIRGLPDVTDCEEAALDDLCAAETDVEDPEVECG
Compound,IC50 (ATR kinase) [nM],IC50 [1] [nM],IC50 (MV4-11 (leukemia) cells; 120 hours) [nM],IC50 ([1]; Homo sapiens) [nM],"IC50 (MV4-11 (leukemia) cells; Homo sapiens, MV4-11, 120 h) [nM]"
Cc1c(-c2cc(N3CCOC[C@H]3C)nc(-c3cc(F)cc4[nH]ccc34)n2)c(C(F)(F)F)nn1C1CCNCC1 [Compound D47],5,600,550,,
Cc1nn(C(=O)N2CCNCC2)c(C)c1-c1cc(N2CCOC[C@H]2C)nc(-c2cc(F)cc3[nH]ccc23)n1 [Compound D55],3,190,220,,
COc1c(-c2cc(N3CCOC[C@H]3C)nc(-c3ccnc4[nH]ccc34)n2)c(C(F)(F)F)nn1C1CCN(C)CC1 [Compound D14],28,,,1200,810
CNc1nc2ccccc2n1-c1nc(-c2c(C(F)(F)F)nn(C3CCCNC3)c2C)cc(N2CCOC[C@H]2C)n1 (some centres unmarked) [Compound D45],10,920,640,,
CNc1nc2cc(F)ccc2n1-c1nc(-c2c(C(F)(F)F)nn(CS(C)(=O)=O)c2C)cc(N2CCOC[C@H]2C)n1 [Compound D42],97,,,2010,1730
Cc1nn([C@@H]2CCNCC2(F)F)c(C)c1-c1cc(N2CCOC[C@H]2C)nc(-c2cc(F)cc3[nH]ccc23)n1 [Compound D54b],13,,,440,260
Cc1nn(C2CCNCC2(F)F)c(C)c1-c1cc(N2CCOC[C@H]2C)nc(-c2ccnc3[nH]ccc23)n1 (some centres unmarked) [Compound D57],16,410,220,,
CNc1nc2ccccc2n1-c1nc(-c2c(C)nn(CS(C)(=O)=O)c2C(F)(F)F)cc(N2CCOC[C@H]2C)n1 [Compound D43],19,,,210,540
CNc1nc2cc(F)ccc2n1-c1nc(-c2c(C)nn(CS(C)(=O)=O)c2C(F)(F)F)cc(N2CCOC[C@H]2C)n1 [Compound D41],29,,,940,570
Cc1nn(C2CCNCC2)c(C(F)(F)F)c1-c1cc(N2CCOC[C@H]2C)nc(-c2cncc3[nH]ccc23)n1 [Compound D19],1,,,110,80
Cc1c(-c2cc(N3CCOC[C@H]3C)nc(-c3ccnc4[nH]ccc34)n2)c(C(F)(F)F)nn1C1CCNCC1 [Compound D2],6,,,920,780
Cc1c(-c2cc(N3CCOC[C@H]3C)nc(-c3cncc4[nH]ccc34)n2)c(C(F)(F)F)nn1C1CCNCC1 [Compound D20],< 1,,,160,70
Cc1nn(C2CCN(C)CC2)c(C)c1-c1cc(N2CCOC[C@H]2C)nc(-c2ccnc3[nH]ccc23)n1 [Compound D4],6,330,190,,
CNc1nc2ccccc2n1-c1nc(-c2c(C)nn(C3CCNCC3)c2C(F)(F)F)cc(C23CCOCC2C3)n1 (centres unmarked) [Compound D48],2,550,200,,
Cc1nn(C[C@@H]2CCCN2)c(C(F)(F)F)c1-c1cc(N2CCOC[C@H]2C)nc(-c2cc(F)cc3[nH]ccc23)n1 [Compound D52],2,370,590,,
Cc1nn(C2CCNCC2)c(C(F)(F)F)c1-c1nc(-c2ccnc3[nH]ccc23)nc(N2CCOC[C@H]2C)c1F [Compound D11],8,640,370,,
Cc1nn(C2CCNCC2)c(C(F)(F)F)c1-c1cc(C23CCOCC2C3)nc(-c2cc(F)cc3[nH]ccc23)n1 (centres unmarked) [Compound D49],2,500,550,,
Cc1c(-c2cc(N3CCOC[C@H]3C)nc(-c3ccnc4[nH]ccc34)n2)c(C(F)(F)F)nn1C1CCCNC1 (some centres unmarked) [Compound D12],3,,,280,290
CNc1nc2cc(F)ccc2n1-c1nc(-c2c(C)nn(CC3(C)COC3)c2C(F)(F)F)cc(N2CCOC[C@H]2C)n1 [Compound D51],32,680,660,,

# Further lines, results first:
IC50 (ATR kinase) [nM],IC50 [1] [nM],IC50 (MV4-11 (leukemia) cells; 120 hours) [nM],IC50 ([1]; Homo sapiens) [nM],"IC50 (MV4-11 (leukemia) cells; Homo sapiens, MV4-11, 120 h) [nM]",Compound
8,720,970,,,CNc1nc2cc(F)ccc2n1-c1nc(-c2c(C)nn(C3CCNCC3)c2C(F)(F)F)c(F)c(N2CCOC[C@H]2C)n1 [Compound D27]
9,440,320,,,CNc1nc2ccccc2n1-c1nc(-c2c(C(F)(F)F)nn(C3CCNCC3)c2C)cc(N2CCOC[C@H]2C)n1 [Compound D56]
16,,,850,920,CNc1nc2ccc(F)cc2n1-c1nc(-c2c(C)nn(C3CCNCC3)c2C(F)(F)F)cc(N2CCOC[C@H]2C)n1 [Compound D22]
13,1450,1310,,,CNc1nc2cc(F)ccc2n1-c1nc(-c2c(C(F)(F)F)nn(C3CCCNC3)c2C)cc(N2CCOC[C@H]2C)n1 (some centres unmarked) [Compound D33]
3,,,860,1230,CNc1nc2cc(F)ccc2n1-c1nc(-c2c(C)nn(CC3CCCNC3)c2C(F)(F)F)cc(N2CCOC[C@H]2C)n1 (some centres unmarked) [Compound D39]
3,,,380,330,CNc1nc2cc(F)ccc2n1-c1nc(-c2c(C)nn(C3CCNCC3)c2C(F)(F)F)cc(N2CCOC[C@H]2C)n1 [Compound D10]
8,580,690,,,CCNc1nc2cc(F)ccc2n1-c1nc(-c2c(C)nn(C3CCNCC3)c2C(F)(F)F)cc(N2CCOC[C@H]2C)n1 [Compound D23]
12,3580,3090,,,CNc1nc2ncccc2n1-c1nc(-c2c(C)nn(C3CCNCC3)c2C(F)(F)F)cc(N2CCOC[C@H]2C)n1 [Compound D26]
< 1,,,240,170,Cc1nn(C2CCNCC2)c(C(F)(F)F)c1-c1cc(N2CCOC[C@H]2C)nc(-n2c(N)nc3ccccc32)n1 [Compound D6]
2,,,140,190,Cc1nn(C2CCNCC2)c(C(F)(F)F)c1-c1cc(N2CCOC[C@H]2C)nc(-n2c(NC(=O)C3CC3)nc3ccccc32)n1 [Compound D21]
16,2090,410,,,Cc1nn(C2CCNCC2)c(C(F)(F)F)c1-c1cc(N2CCOC[C@H]2C)nc(-n2cnc3cc(F)ccc32)n1 [Compound D30a]
1,,,460,310,Cc1nn(C2CCNCC2)c(C(F)(F)F)c1-c1cc(N2CCOC[C@H]2C)nc(-n2c(N)nc3cc(F)ccc32)n1 [Compound D7]
,,,1030,990,CNc1nc2cc(Cl)ccc2n1-c1nc(-c2c(C)nn(C3CCNCC3)c2C(F)(F)F)cc(N2CCOC[C@H]2C)n1 [Compound D25]
6,1330,530,,,Cc1nn(C2CCNCC2)c(C(F)(F)F)c1-c1cc(N2CCOC[C@H]2C)nc(-n2cnc3ccccc32)n1 [Compound D46]
5,140,230,,,Cc1nn(C2CCNCC2)c(C(F)(F)F)c1-c1cc(N2CCOC[C@H]2C)nc(-n2c(NC(=O)C3CC3)nc3ccccc32)n1 [Compound D38]
